The values that follow come from ChEMBL document CHEMBL4033700, “From a novel HTS hit to potent, selective, and orally bioavailable KDM5 inhibitors” (Bioorg Med Chem Lett, 2017).

A short description of data set [1]: Half-life in CD-1 mouse plasma at 1 mg/kg, iv or 5 mg/kg, po. It is filed as ADME, organism-based.
Data set [2] concerns the target Lysine-specific demethylase 5C (Homo sapiens, UniProt P41229). Nature of the data set: Inhibition of recombinant human N-terminal FLAG-tagged KDM5C expressed in baculovirus infected Sf9 insect cells using H3K4me3 peptide as substrate after 30 to 45 mins by TR-FRET assay.
Data set [3] can be described thus: Hepatic clearance in rat hepatocytes. The format is ADME, cell-based, Hepatocyte.
Data set [4] has as its target Lysine-specific histone demethylase 1A (Homo sapiens, UniProt O60341). Nature of the data set: Inhibition of KDM1A (unknown origin).
The nature of data set [5]: Protein binding in human plasma. As to conditions: read-out: PPB (converted). The format is ADME, cell-free.
A short description of data set [6]: Volume of distribution in CD-1 mouse plasma at 1 mg/kg, iv or 5 mg/kg, po. It is filed as ADME, organism-based.
In data set [7] the target is T1, Lysine-specific demethylase 4C (Homo sapiens, UniProt Q9H3R0).
T1 sequence (Q9H3R0 whole entry): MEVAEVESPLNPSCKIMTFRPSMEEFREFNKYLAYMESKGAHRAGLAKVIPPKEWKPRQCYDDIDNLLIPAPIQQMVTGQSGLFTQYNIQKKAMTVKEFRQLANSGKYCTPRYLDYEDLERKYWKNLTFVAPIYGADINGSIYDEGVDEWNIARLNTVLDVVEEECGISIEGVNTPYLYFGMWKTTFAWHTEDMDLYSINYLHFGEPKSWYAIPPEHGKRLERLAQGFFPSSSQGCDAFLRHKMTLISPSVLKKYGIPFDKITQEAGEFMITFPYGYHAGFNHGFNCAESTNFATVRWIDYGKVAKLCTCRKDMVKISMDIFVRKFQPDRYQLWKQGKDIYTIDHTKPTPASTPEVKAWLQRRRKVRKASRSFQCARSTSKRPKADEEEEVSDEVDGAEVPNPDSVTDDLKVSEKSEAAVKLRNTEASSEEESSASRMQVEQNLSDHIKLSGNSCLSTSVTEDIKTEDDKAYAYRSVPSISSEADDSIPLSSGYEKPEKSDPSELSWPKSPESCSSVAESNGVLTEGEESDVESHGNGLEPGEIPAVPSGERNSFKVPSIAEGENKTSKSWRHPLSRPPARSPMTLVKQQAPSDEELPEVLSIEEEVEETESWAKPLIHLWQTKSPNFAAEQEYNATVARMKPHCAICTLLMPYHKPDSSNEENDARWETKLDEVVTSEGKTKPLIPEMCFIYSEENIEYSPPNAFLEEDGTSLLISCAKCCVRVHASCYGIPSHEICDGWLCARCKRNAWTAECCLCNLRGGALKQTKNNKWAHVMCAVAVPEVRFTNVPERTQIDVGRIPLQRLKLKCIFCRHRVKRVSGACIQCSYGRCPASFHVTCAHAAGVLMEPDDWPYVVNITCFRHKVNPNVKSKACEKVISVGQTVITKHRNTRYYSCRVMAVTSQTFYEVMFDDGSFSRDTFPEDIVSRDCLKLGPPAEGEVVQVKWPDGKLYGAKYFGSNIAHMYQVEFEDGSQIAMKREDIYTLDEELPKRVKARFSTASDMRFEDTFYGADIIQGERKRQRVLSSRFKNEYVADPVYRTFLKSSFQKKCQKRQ
Nature of the data set: Inhibition of recombinant human N-terminal FLAG-tagged KDM4C expressed in baculovirus infected Sf9 insect cells using H3K9me3 peptide as substrate after 30 to 45 mins by TR-FRET assay.

Molecules are shown by their SMILES.

Chain of Lysine-specific demethylase 5C (P41229 whole entry): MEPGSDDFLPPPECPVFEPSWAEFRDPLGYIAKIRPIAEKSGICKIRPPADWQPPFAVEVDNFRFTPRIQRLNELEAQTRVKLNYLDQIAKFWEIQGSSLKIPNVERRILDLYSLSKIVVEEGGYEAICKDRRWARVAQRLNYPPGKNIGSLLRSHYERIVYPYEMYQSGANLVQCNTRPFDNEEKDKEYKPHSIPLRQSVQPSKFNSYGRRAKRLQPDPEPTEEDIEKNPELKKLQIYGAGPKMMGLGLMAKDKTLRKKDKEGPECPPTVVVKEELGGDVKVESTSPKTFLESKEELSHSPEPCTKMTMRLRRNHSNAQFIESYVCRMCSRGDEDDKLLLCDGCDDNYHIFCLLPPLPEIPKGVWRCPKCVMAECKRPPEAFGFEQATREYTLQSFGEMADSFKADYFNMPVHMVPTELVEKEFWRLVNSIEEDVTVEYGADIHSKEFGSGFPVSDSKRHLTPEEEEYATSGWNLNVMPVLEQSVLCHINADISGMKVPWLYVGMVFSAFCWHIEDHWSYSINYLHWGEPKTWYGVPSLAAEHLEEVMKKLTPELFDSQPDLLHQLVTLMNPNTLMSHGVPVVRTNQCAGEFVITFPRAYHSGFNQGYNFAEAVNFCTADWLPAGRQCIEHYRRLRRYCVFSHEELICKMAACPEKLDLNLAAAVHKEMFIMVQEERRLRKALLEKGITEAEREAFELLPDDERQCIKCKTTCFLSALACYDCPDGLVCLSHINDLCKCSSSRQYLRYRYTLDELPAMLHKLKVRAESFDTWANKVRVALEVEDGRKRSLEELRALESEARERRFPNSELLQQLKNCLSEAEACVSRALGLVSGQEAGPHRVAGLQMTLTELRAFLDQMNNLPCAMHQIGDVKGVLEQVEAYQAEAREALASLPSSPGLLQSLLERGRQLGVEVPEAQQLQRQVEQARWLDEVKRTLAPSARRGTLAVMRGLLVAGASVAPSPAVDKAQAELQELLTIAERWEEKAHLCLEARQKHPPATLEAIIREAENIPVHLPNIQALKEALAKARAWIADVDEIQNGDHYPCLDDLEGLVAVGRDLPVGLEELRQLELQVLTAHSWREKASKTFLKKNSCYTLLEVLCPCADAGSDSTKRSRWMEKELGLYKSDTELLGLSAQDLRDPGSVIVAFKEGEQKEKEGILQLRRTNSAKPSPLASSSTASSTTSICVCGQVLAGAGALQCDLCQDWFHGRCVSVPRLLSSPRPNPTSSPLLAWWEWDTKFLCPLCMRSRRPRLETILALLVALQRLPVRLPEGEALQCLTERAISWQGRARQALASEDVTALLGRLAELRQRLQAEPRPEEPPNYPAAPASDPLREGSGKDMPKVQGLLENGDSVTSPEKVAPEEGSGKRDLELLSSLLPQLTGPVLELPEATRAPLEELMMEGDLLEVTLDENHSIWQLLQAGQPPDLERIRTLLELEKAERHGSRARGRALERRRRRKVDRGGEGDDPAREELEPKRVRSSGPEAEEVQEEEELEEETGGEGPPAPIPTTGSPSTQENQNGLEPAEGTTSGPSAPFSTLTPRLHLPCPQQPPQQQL

With `CC(C)c1cc(C(=O)N2CC[C@@H](NC(=O)C3CC3)C2)[nH]n1`, the half-life in data set [1] is 24 min. The IC50 in data set [2] was 0.055 µM; in data set [4] it was more than 25 µM; in data set [7], 4.1 µM. Also, in data set [3], the CLhep predicted is 6.3 mL/min/kg. Further, in data set [5], the fraction unbound was 0.56. Moreover, in data set [6], the Vd was found to be 0.7 L/kg.
